In patent US20240409585A1, “MACROCYCLIC IMMUNOMODULATORS” (priority 2021, published 2024):
Bridge positions count the residues as written; N and C are the ends. Square brackets hold non-standard residues; d marks the D form. Peptide text beside a SMILES is read from it. * marks the point of attachment. ξ: configuration not given here. Phe(4-COOH) = N[C@@H](Cc1ccc(C(=O)O)cc1)C(=O)O; Bip = N[C@@H](Cc1ccc(-c2ccccc2)cc1)C(=O)O; Phe(3-CN) = N#Cc1cccc(C[C@H](N)C(=O)O)c1; mTyr = N[C@@H](Cc1cccc(O)c1)C(=O)O; Cit = NC(=O)NCCC[C@H](N)C(=O)O; ξIle = CC[C@H](C)C(N)C(=O)O; Pip = O=C(O)[C@@H]1CCCCN1; Carboxymethyl = O=C(O)C*; NMeA = CN[C@@H](C)C(=O)O; Orn = NCCC[C@H](N)C(=O)O; Dab = NCC[C@H](N)C(=O)O

target: T1, PE-labeled human PD-L1-Ig binding to Jurkat cell line over-expressing human PD-1 (Jurkat-PD-1) (Homo sapiens, UniProt Q15116); test: Jurkat-PD-1 Cell Binding High-Content Screening Assay (CBA): Method 1; settings: Jurkat-hPD-1 cells, PE-labeled PD-L1-Ig 20 nM final; read-out: Jurkat HPDL1 PD1 IC50 (uM) (Method 1)
T1 construct: expressed in transfected cells; host or cells: Jurkat
T1 sequence (Q15116 25-288): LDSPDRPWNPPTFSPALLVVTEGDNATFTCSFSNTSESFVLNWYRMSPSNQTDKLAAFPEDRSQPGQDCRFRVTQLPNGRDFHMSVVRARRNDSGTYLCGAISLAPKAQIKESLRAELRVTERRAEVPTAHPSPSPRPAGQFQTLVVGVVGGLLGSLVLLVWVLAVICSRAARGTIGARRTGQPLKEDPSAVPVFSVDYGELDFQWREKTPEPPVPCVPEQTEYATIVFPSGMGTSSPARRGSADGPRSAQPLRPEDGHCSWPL

| SMILES | IC50 [µM] |
| --- | --- |
| CC(C)C[C@@H]1NC(=O)[C@H](CCN)NC(=O)[C@@H](CC(C)C)NC(=O)[C@H](C)N(C)C(=O)[C@H](C(C)C)NC(=O)[C@H](Cc2ccc(-c3ccccc3)cc2)NC(=O)[C@H](C(C)C)NC(=O)[C@H](Cc2c[nH]c3ccccc23)NC(=O)[C@H](CC(=O)O)NC(=O)[C@H](Cc2cccc(C#N)c2)NC(=O)[C@H](CC(N)=O)NC(=O)CSC[C@@H](C(=O)N[C@@H](C)C(N)=O)NC(=O)[C@H]([C@@H](C)O)NC(=O)[C@H](C(C)C)NC1=O [Compound 1380] ({CH2CO}-N[Phe(3-CN)]DWV[Bip]V[NMeA][dL][Dab]LVTCA-NH2; thioether N-14) | 0.02 |
| CC(C)C[C@@H]1NC(=O)[C@H](CCN)NC(=O)[C@@H](CC(C)C)NC(=O)[C@@H]2CCCCN2C(=O)[C@H](Cc2cnc[nH]2)NC(=O)[C@H](Cc2ccc(-c3ccccc3)cc2)NC(=O)[C@H](C(C)C)NC(=O)[C@H](Cc2c[nH]c3ccccc23)NC(=O)[C@H](CC(=O)O)NC(=O)[C@H](Cc2ccc(O)cc2)NC(=O)[C@H](CC(N)=O)NC(=O)CSC[C@@H](C(=O)N[C@@H](C)C(N)=O)NC(=O)[C@H]([C@@H](C)O)NC(=O)[C@H](C(C)C)NC1=O [Compound 1381] ({CH2CO}-NYDWV[Bip]H[Pip][dL][Dab]LVTCA-NH2; thioether N-14) | 0.03 |
| CC(C)C[C@@H]1NC(=O)[C@H](CCN)NC(=O)[C@@H](CC(C)C)NC(=O)[C@@H]2CCCCN2C(=O)[C@H](CCCNC(N)=O)NC(=O)[C@H](Cc2ccc(-c3ccccc3)cc2)NC(=O)[C@H](C(C)C)NC(=O)[C@H](Cc2c[nH]c3ccccc23)NC(=O)[C@H](CC(=O)O)NC(=O)[C@H](Cc2ccc(O)cc2)NC(=O)[C@H](CC(N)=O)NC(=O)CSC[C@@H](C(=O)N[C@@H](C)C(N)=O)NC(=O)[C@H]([C@@H](C)O)NC(=O)[C@H](C(C)C)NC1=O [Compound 1382] ({CH2CO}-NYDWV[Bip][Cit][Pip][dL][Dab]LVTCA-NH2; thioether N-14) | 0.08 |
| CC(C)C[C@@H]1NC(=O)[C@H](CCN)NC(=O)[C@@H](CC(C)C)NC(=O)[C@H](C)N(C)C(=O)[C@H](Cc2cnc[nH]2)NC(=O)[C@H](Cc2ccc(-c3ccccc3)cc2)NC(=O)[C@H](C(C)C)NC(=O)[C@H](Cc2c[nH]c3ccccc23)NC(=O)[C@H](CC(=O)O)NC(=O)[C@H](Cc2ccc(C(=O)O)cc2)NC(=O)[C@H](CC(N)=O)NC(=O)CSC[C@@H](C(=O)N[C@@H](C)C(N)=O)NC(=O)[C@H]([C@@H](C)O)NC(=O)[C@H](C(C)C)NC1=O [Compound 1383] ({CH2CO}-N[Phe(4-COOH)]DWV[Bip]H[NMeA][dL][Dab]LVTCA-NH2; thioether N-14) | 0.06 |
| CC(C)C[C@@H]1NC(=O)[C@H](CCN)NC(=O)[C@@H](CC(C)C)NC(=O)[C@H](C)N(C)C(=O)[C@H](C(C)C)NC(=O)[C@H](Cc2ccc(-c3ccccc3)cc2)NC(=O)[C@H](C(C)C)NC(=O)[C@H](Cc2c[nH]c3ccccc23)NC(=O)[C@H](CC(=O)O)NC(=O)[C@H](Cc2cccc(O)c2)NC(=O)[C@H](CC(N)=O)NC(=O)CSC[C@@H](C(=O)N[C@@H](C)C(N)=O)NC(=O)[C@H]([C@@H](C)O)NC(=O)[C@H](C(C)C)NC1=O [Compound 1384] ({CH2CO}-N[mTyr]DWV[Bip]V[NMeA][dL][Dab]LVTCA-NH2; thioether N-14) | 0.02 |
| CC(C)C[C@@H]1NC(=O)[C@H](CCN)NC(=O)[C@@H](CC(C)C)NC(=O)[C@H](C)N(C)C(=O)[C@H](CCCN)NC(=O)[C@H](Cc2ccc(-c3ccccc3)cc2)NC(=O)[C@H](C(C)C)NC(=O)[C@H](Cc2c[nH]c3ccccc23)NC(=O)[C@H](CC(=O)O)NC(=O)[C@H](Cc2ccc(C(=O)O)cc2)NC(=O)[C@H](CC(N)=O)NC(=O)CSC[C@@H](C(=O)N[C@@H](C)C(N)=O)NC(=O)[C@H]([C@@H](C)O)NC(=O)[C@H](C(C)C)NC1=O [Compound 1386] ({CH2CO}-N[Phe(4-COOH)]DWV[Bip][Orn][NMeA][dL][Dab]LVTCA-NH2; thioether N-14) | 0.05 |
| CC(C)C[C@@H]1NC(=O)[C@H](CCN)NC(=O)[C@@H](CC(C)C)NC(=O)[C@H](C)N(C)C(=O)[C@H](CCCN)NC(=O)[C@H](Cc2ccc(-c3ccccc3)cc2)NC(=O)[C@H](C(C)C)NC(=O)[C@H](Cc2c[nH]c3ccccc23)NC(=O)[C@H](CC(=O)O)NC(=O)[C@H](Cc2ccc(OCC(=O)O)cc2)NC(=O)[C@H](CC(N)=O)NC(=O)CSC[C@@H](C(=O)N[C@@H](C)C(N)=O)NC(=O)[C@H]([C@@H](C)O)NC(=O)[C@H](C(C)C)NC1=O [Compound 1387] ({CH2CO}-NY(Carboxymethyl)DWV[Bip][Orn][NMeA][dL][Dab]LVTCA-NH2; thioether N-14) | 0.03 |

Further lines, results first:

| IC50 [µM] | SMILES |
| --- | --- |
| 0.06 | CC(C)C[C@@H]1NC(=O)[C@H](CCN)NC(=O)[C@@H](CC(C)C)NC(=O)[C@H](C)N(C)C(=O)[C@H](Cc2cnc[nH]2)NC(=O)[C@H](Cc2ccc(-c3ccccc3)cc2)NC(=O)[C@H](C(C)C)NC(=O)[C@H](Cc2c[nH]c3ccccc23)NC(=O)[C@H](CC(=O)O)NC(=O)[C@H](Cc2ccc(OCC(=O)O)cc2)NC(=O)[C@H](CC(N)=O)NC(=O)CSC[C@@H](C(=O)N[C@@H](C)C(N)=O)NC(=O)[C@H]([C@@H](C)O)NC(=O)[C@H](C(C)C)NC1=O [Compound 1388] ({CH2CO}-NY(Carboxymethyl)DWV[Bip]H[NMeA][dL][Dab]LVTCA-NH2; thioether N-14) |
| 0.03 | CC(C)C[C@@H]1NC(=O)[C@H](CCN)NC(=O)[C@@H](CC(C)C)NC(=O)[C@H](C)N(C)C(=O)[C@H](CCC(=O)O)NC(=O)[C@H](Cc2ccc(-c3ccccc3)cc2)NC(=O)[C@H](C(C)C)NC(=O)[C@H](Cc2c[nH]c3ccccc23)NC(=O)[C@H](CC(=O)O)NC(=O)[C@H](Cc2ccc(C(=O)O)cc2)NC(=O)[C@H](CC(N)=O)NC(=O)CSC[C@@H](C(=O)N[C@@H](C)C(N)=O)NC(=O)[C@H]([C@@H](C)O)NC(=O)[C@H](C(C)C)NC1=O [Compound 1389] ({CH2CO}-N[Phe(4-COOH)]DWV[Bip]E[NMeA][dL][Dab]LVTCA-NH2; thioether N-14) |
| 0.11 | CC(C)C[C@@H]1NC(=O)[C@H](CCN)NC(=O)[C@@H](CC(C)C)NC(=O)[C@H](C)N(C)C(=O)[C@H](CCC(=O)O)NC(=O)[C@H](Cc2ccc(-c3ccccc3)cc2)NC(=O)[C@H](C(C)C)NC(=O)[C@H](Cc2c[nH]c3ccccc23)NC(=O)[C@H](CC(=O)O)NC(=O)[C@H](Cc2ccc(OCC(=O)O)cc2)NC(=O)[C@H](CC(N)=O)NC(=O)CSC[C@@H](C(=O)N[C@@H](C)C(N)=O)NC(=O)[C@H]([C@@H](C)O)NC(=O)[C@H](C(C)C)NC1=O [Compound 1390] ({CH2CO}-NY(Carboxymethyl)DWV[Bip]E[NMeA][dL][Dab]LVTCA-NH2; thioether N-14) |
| 0.03 | CC[C@H](C)[C@@H]1NC(=O)[C@H](Cc2ccc(-c3ccccc3)cc2)NC(=O)[C@H](C(C)C)NC(=O)[C@H](Cc2c[nH]c3ccccc23)NC(=O)[C@H](CC(=O)O)NC(=O)[C@H](Cc2ccc(O)cc2)NC(=O)[C@H](CCC(N)=O)NC(=O)CSC[C@@H](C(=O)N[C@@H](C)C(N)=O)NC(=O)[C@H]([C@@H](C)O)NC(=O)[C@H](C(C)C)NC(=O)[C@H](CC(C)C)NC(=O)[C@H](CCN)NC(=O)[C@@H](CC(C)C)NC(=O)[C@H](C)N(C)C1=O [Compound 1391] ({CH2CO}-QYDWV[Bip]I[NMeA][dL][Dab]LVTCA-NH2; thioether N-14) |
| 0.04 | CC[C@H](C)[C@@H]1NC(=O)[C@H](Cc2ccc(-c3ccccc3)cc2)NC(=O)[C@H](C(C)C)NC(=O)[C@H](Cc2c[nH]c3ccccc23)NC(=O)[C@H](CC(=O)O)NC(=O)[C@H](Cc2ccc(O)cc2)NC(=O)[C@H](CC(C)C)NC(=O)CSC[C@@H](C(=O)N[C@@H](C)C(N)=O)NC(=O)[C@H]([C@@H](C)O)NC(=O)[C@H](C(C)C)NC(=O)[C@H](CC(C)C)NC(=O)[C@H](CCN)NC(=O)[C@@H](CC(C)C)NC(=O)[C@H](C)N(C)C1=O [Compound 1392] ({CH2CO}-LYDWV[Bip]I[NMeA][dL][Dab]LVTCA-NH2; thioether N-14) |
| 0.03 | CC[C@H](C)[C@@H]1NC(=O)[C@H](Cc2ccc(-c3ccccc3)cc2)NC(=O)[C@H](C(C)C)NC(=O)[C@H](Cc2c[nH]c3ccccc23)NC(=O)[C@H](CC(=O)O)NC(=O)[C@H](Cc2ccc(O)cc2)NC(=O)[C@H](Cc2ccccc2)NC(=O)CSC[C@@H](C(=O)N[C@@H](C)C(N)=O)NC(=O)[C@H]([C@@H](C)O)NC(=O)[C@H](C(C)C)NC(=O)[C@H](CC(C)C)NC(=O)[C@H](CCN)NC(=O)[C@@H](CC(C)C)NC(=O)[C@H](C)N(C)C1=O [Compound 1393] ({CH2CO}-FYDWV[Bip]I[NMeA][dL][Dab]LVTCA-NH2; thioether N-14) |
| 0.01 | CC(C)C[C@@H]1NC(=O)[C@H](CCN)NC(=O)[C@@H](CC(C)C)NC(=O)[C@H](C)N(C)C(=O)[C@H](C(C)C)NC(=O)[C@H](Cc2ccc(-c3ccccc3)cc2)NC(=O)[C@H](C(C)C)NC(=O)[C@H](Cc2c[nH]c3ccccc23)NC(=O)[C@H](CC(=O)O)NC(=O)[C@H](Cc2ccc(O)cc2)NC(=O)[C@H](CCCNC(=N)N)NC(=O)CSC[C@@H](C(=O)N[C@@H](C)C(N)=O)NC(=O)[C@H]([C@@H](C)O)NC(=O)[C@H](C(C)C)NC1=O [Compound 1394] ({CH2CO}-RYDWV[Bip]V[NMeA][dL][Dab]LVTCA-NH2; thioether N-14) |
| 0.02 | CC[C@H](C)C1NC(=O)[C@H](Cc2ccc(-c3ccccc3)cc2)NC(=O)[C@H](C(C)C)NC(=O)[C@H](Cc2c[nH]c3ccccc23)NC(=O)[C@H](CC(=O)O)NC(=O)[C@H](Cc2ccc(C(=O)O)cc2)NC(=O)[C@H](CC(N)=O)NC(=O)CSC[C@@H](C(=O)N[C@@H](C)C(N)=O)NC(=O)[C@H]([C@@H](C)O)NC(=O)[C@H](C(C)C)NC(=O)[C@H](CC(C)C)NC(=O)[C@H](CCN)NC(=O)[C@@H](CC(C)C)NC(=O)[C@H](C)N(C)C1=O (stereo partly drawn) [Compound 1395] ({CH2CO}-N[Phe(4-COOH)]DWV[Bip][ξIle][NMeA][dL][Dab]LVTCA-NH2; thioether N-14) |
